Laboratory results as given in patent publication US11286268B1, “EIF4E-inhibiting compounds and methods” (EFFECTOR THERAPEUTICS, INC., priority 2019, dated 2022).
Where two headings read alike, the source gives them in different places.

Biological target: recombinant eIF4E (Homo sapiens (Human), UniProt P06730)
Assay: Fluorescence polarization competition assay for eIF4E binding potency
Outline: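 FP readout; IC50 fit from 8-point, 3-fold series. 75 nM eIF4E + 20 nM ATTO-550-labelled m7GDP probe, Tris pH 7.5/NaCl/DTT/Tween buffer, 1% DMSO final. 30 min RT equilibration, light-protected.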

[1] = fluorescence polarization competition, 75 nM recombinant eIF4E, 20 nM EDA-m7GDP-ATTO-550, IC50 class, read-out: elF4E FP
[2] = inhibition of eIF4E/EDA-m7GDP-ATTO-550 binding by 50%, Table 4B calculated values, read-out: IC50
[3] = inhibition of eIF4E/EDA-m7GDP-ATTO-550 binding, calculated IC50 values, Table 4B, read-out: IC50

Sequence of recombinant eIF4E (P06730 whole entry): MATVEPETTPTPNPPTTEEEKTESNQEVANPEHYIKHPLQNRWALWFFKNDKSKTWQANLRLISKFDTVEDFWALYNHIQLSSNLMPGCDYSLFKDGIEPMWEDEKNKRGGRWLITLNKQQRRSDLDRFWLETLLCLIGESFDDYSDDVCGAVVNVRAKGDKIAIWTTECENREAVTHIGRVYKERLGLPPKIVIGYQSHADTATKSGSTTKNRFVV

SMILES | IC50 [1] | IC50 [2] | IC50 [3]
Cc1cc(-c2cc(Cl)ccc2OCCn2c(C)nc3cnc(N4CCN(C)CC4)cc3c2=O)c2scc(C(=O)O)c2n1 [compound 810] | < 0.05 µM | – | –
Cc1cc(-c2cc(Cl)ccc2OCCn2c(C)nc3cnc(C(C)(C)C)c(C#N)c3c2=O)c2scc(C(=O)O)c2n1 [compound 420] | < 0.05 µM | 0.0096 µM | –
Cc1cc(-c2cc(Cl)ccc2OCCn2c(C)nc3cc(Cl)c(N(C)c4cncc(F)c4)c(C#N)c3c2=O)c2scc(C(=O)O)c2n1 [compound 961] | < 0.05 µM | 0.0211 µM | –
Cc1nc2cnc(N3CCC(N4CC(F)C4)CC3)c(C#N)c2c(=O)n1CC#Cc1ccc(Cl)cc1-c1ccnc2c(C(=O)O)csc12 [compound 1564] | – | – | 0.0106 µM
Cc1nc2cnc(N(C)C3CCN(CC(C)(F)F)CC3)c(C#N)c2c(=O)n1CC#Cc1ccc(Cl)cc1-c1ccnc2c(C(=O)NS(=O)(=O)CC(F)(F)F)csc12 [compound 1595] | – | – | 0.0548 µM
Cc1ccc(-c2cc(Cl)ccc2OCCn2c(C)nc3cc(C(F)(F)F)c(N4CCN(C)CC4)c(C#N)c3c2=O)c2scc(C(=O)O)c12 [compound 1218] | < 0.05 µM | – | 0.0131 µM
Cc1nc2cnc(-c3ccncc3)c(C#N)c2c(=O)n1CC#Cc1ccc(Cl)cc1-c1ccnc2c(C(=O)O)csc12 [compound 770] | < 0.05 µM | 0.014 µM | –
Cc1nc2cncc(Br)c2c(=O)n1CCOc1ccc(Cl)cc1-c1cccc(C(=O)O)c1 [compound 1999] | – | – | 0.482 µM
Cc1nc2cc(C(F)(F)F)c(N3CCN(C)CC3=O)c(C#N)c2c(=O)n1CC#Cc1ccc(Cl)cc1-c1ccnc2c(C(=O)O)csc12 [compound 1270] | – | – | 0.0399 µM
Cc1cc(-c2cc(Cl)ccc2OCCn2c(C)nc3cnc(N4CCCC4=O)c(C#N)c3c2=O)c2scc(C(=O)O)c2n1 [compound 977] | < 0.05 µM | 0.0144 µM | –
Cn1cc(-c2cc(Cl)ccc2OCCn2cnc3cnc(C#N)cc3c2=O)cc1C(=O)O [compound 82] | > 1 µM | 1.66 µM | –
COC(=O)c1csc2c(-c3cc(Cl)ccc3C#CCn3c(C)nc4cnc(N5CCN(CC(F)F)CC5)c(C#N)c4c3=O)ccnc12 [compound 1404] | – | – | 0.482 µM
N#Cc1cc2c(=O)n(CCOc3ccc(Cl)cc3-c3cc4c(c(C(=O)O)c3)OCO4)cnc2cn1 [compound 96] | > 1 µM | 2.1 µM | –
Cc1cc(-c2cc(Cl)ccc2OCCn2c(C)nc3c(C)nc(-c4c(C)cccc4C)c(C#N)c3c2=O)c2scc(C(=O)O)c2n1 [compound 872] | < 0.05 µM | – | –
Cc1cc(-c2cc(Cl)ccc2OCCn2c(C)nc3c(C)ncc(C#N)c3c2=O)c2scc(C(O)(C(F)(F)F)C(F)(F)F)c2n1 [compound 749] | > 1 µM | > 100 µM | –
Cc1nc2cnc(N(C)C3CCN(CC(F)(F)CF)CC3)c(C#N)c2c(=O)n1CC#Cc1ccc(Cl)cc1-c1ccnc2c(C(=O)O)csc12 [compound 1134] | < 0.05 µM | 0.0153 µM | –
Cc1nc2cnc(N(C)C3CCN([C@H]4C[C@@H](OC(F)(F)F)C4)CC3)c(C#N)c2c(=O)n1CC#Cc1ccc(Cl)cc1-c1ccnc2c(C(=O)NS(=O)(=O)c3ccncc3)csc12 [compound 1773] | – | – | 0.0475 µM
Cc1nc2cnc(N3CCC34CCN(CC(F)F)CC4)c(C#N)c2c(=O)n1CC#Cc1ccc(Cl)cc1-c1ccnc2c(C(=O)O)csc12 [compound 1500] | – | – | 0.017 µM
Cc1nc2c(N3C4CCC3CN(C)C4)ncc(C#N)c2c(=O)n1CCOc1ccc(Cl)cc1-c1ccnc2c(C(=O)O)csc12 [compound 857] | < 0.05 µM | 0.00462 µM | –
Cc1nc2cc(C(F)F)c(CN(C)C)c(C#N)c2c(=O)n1CC#Cc1ccc(Cl)cc1-c1ccnc2c(C(=O)O)csc12 [compound 622] | < 0.05 µM | 0.0438 µM | –
N#Cc1cc(C(F)F)cc2ncn(CCOc3ccc(Cl)cc3-c3cccc(C(=O)O)c3)c(=O)c12 [compound 139] | < 0.05 µM | 0.0346 µM | –

SMILES | IC50 [1] | IC50 [2] | IC50 [3]
Cc1nc2cnc(N3CCN(C4COC4)CC3)c(C#N)c2c(=O)n1CC#Cc1ccc(Cl)cc1-c1ccnc2c(C(=O)O)csc12 [compound 1321] | – | – | 0.0602 µM
COC1CN(c2ncc3nc(C)n(CCOc4ccc(Cl)cc4-c4cc(C)nc5c(C(=O)O)csc45)c(=O)c3c2C#N)C1 [compound 1010] | < 0.05 µM | 0.00529 µM | –
Cc1cc(-c2cc(Cl)ccc2OCCn2c(C)nc3cc(C(F)(F)F)cc(C#N)c3c2=O)cc(CC(=O)O)n1 [compound 411] | 0.05 to 1 µM | 0.193 µM | –
Cc1cc(-c2cc(Cl)ccc2OCCn2c(C)nc3cc(CN(C)C)c(OC(F)F)c(C#N)c3c2=O)c2scc(C(=O)NS(C)(=O)=O)c2n1 [compound 451] | < 0.05 µM | 0.036 µM | –
CCc1cc(-c2cc(Cl)ccc2OCCn2c(N)nc3cc(Cl)cc(C#N)c3c2=O)c2scc(C(=O)O)c2n1 [compound 1077] | 0.05 to 1 µM | 0.245 µM | –
Cc1nc2cc(C(F)(F)F)cc(C#N)c2c(=O)n1CCOc1ccc(Cl)cc1-c1nsc2c(C(=O)O)csc12 [compound 315] | 0.05 to 1 µM | 0.582 µM | –
Cc1nc2cnc(C3=C(C(C)(C)C)CN(C)C3)c(C#N)c2c(=O)n1CCOc1ccc(Cl)cc1-c1ccnc2c(C(=O)O)csc12 [compound 1332] | – | – | 0.0345 µM
Cc1nc2cc(C#N)c(CN(C)C)c(C#N)c2c(=O)n1CCOc1ccc(Cl)cc1-c1ccnc2c(C(=O)O)csc12 [compound 510] | 0.05 to 1 µM | 0.0505 µM | –
Cc1nc2cc(C(F)(F)F)cc(C(F)(F)F)c2c(=O)n1CCOc1ccc(Cl)cc1-c1ccnc2c(C(=O)O)csc12 [compound 219] | 0.05 to 1 µM | 0.109 µM | –
Cc1cc(-c2cc(Cl)ccc2OCCn2c(C)nc3cc(F)c(CN4CCOCC4)c(C#N)c3c2=O)c2scc(C(=O)O)c2n1 [compound 367] | < 0.05 µM | 0.00287 µM | –
Cc1nc2cnc(N3CCN(C)CC3)c(C#N)c2c(=O)n1CC#Cc1ccc(Cl)cc1-c1ccnc2c(C(=O)O)csc12 [compound 842] | < 0.05 µM | 0.0209 µM | –
Cc1cc(-c2cc(Cl)ccc2OCCn2c(C)nc3c(C4CC4)ncc(Cl)c3c2=O)c2scc(C(=O)O)c2n1 [compound 1963] | – | – | 0.241 µM
Cc1cc(-c2cc(Cl)ccc2OCCn2c(C)nc3cc(CN(C)C)c(C)c(C#N)c3c2=O)c2scc(C(=O)O)c2n1 [compound 650] | < 0.05 µM | 0.0283 µM | –
O=C(O)c1cccc(-c2cc(Cl)ccc2OCCn2c(C(F)F)nc3cncc(Br)c3c2=O)c1 [compound 2010] | – | – | 1.19 µM
Cc1nc2cnc(N(C)CCN(C)CC(F)(F)F)c(C#N)c2c(=O)n1CC#Cc1ccc(Cl)cc1-c1ccnc2c(C(=O)O)csc12 [compound 1491] | – | – | 0.029 µM
Cc1cc(-c2cc(Cl)ccc2OCCn2c(C)nc3cc(C(F)(F)F)c(CC4CN(C)C4)c(C#N)c3c2=O)c2scc(C(=O)O)c2n1 [compound 425] | < 0.05 µM | 0.0112 µM | –
Cc1cc(-c2cc(Cl)ccc2OCCn2c(C)nc3c(C)nc(-c4ccccc4Cl)c(C#N)c3c2=O)c2scc(C(=O)O)c2n1 [compound 482] | < 0.05 µM | – | –
Cc1ccc(-c2nc(C)c3nc(C)n(CCOc4ccc(Cl)cc4-c4cc(C)nc5c(C(=O)O)csc45)c(=O)c3c2C#N)cc1 [compound 477] | < 0.05 µM | – | –
Cc1cc(-c2cc(Cl)ccc2OCCn2c(C)nc3cnc(N4CC(C)(O)C4)c(C#N)c3c2=O)c2scc(C(=O)O)c2n1 [compound 1057] | < 0.05 µM | 0.0125 µM | –
Cc1nc2cnc(N(C)[C@H]3CC[C@@H](N(C)CC(F)F)CC3)c(C#N)c2c(=O)n1CC#Cc1ccc(Cl)cc1-c1ccnc2c(C(=O)O)csc12 [compound 1896] | – | – | 0.0122 µM
